Tests used:
[1] = test system: CEP55, MKRN2, EDF1, CHMP2B, DTX3L; test: Immunoblotting of commonly depleted USP9X substrates; format: cell-based, human; settings: MiaPaca2 and SK-MEL-2, 24 h; rescued with proteasomal inhibition (MG132)
Description: The next day, cells were lysed in DISC lysis buffer (20 mM TRIS/HCl [pH 7.5], 150 mM NaCl, 2 mM EDTA [pH 8.0], 1% [v/v] Triton X 100, 10% [v/v] glycerol) supplemented with 2% (w/v) SDS and PhosSTOP tablets (Roche). To shred DNA, DISC lysates were run through polypropylene columns (Pierce). […] Next, membranes were washed twice in TBS-T and incubated with primary antibodies at 4 °C o/n. Primary antibodies were diluted in antibody dilution buffer (5% [w/v] BSA [pH 5.2, Sigma-Aldrich] in TBS-T with 0.04% [v/v] sodium azide) as per the manufacturer’s instructions. […] Next, membranes were washed four times for 5 min each in TBS-T. Membranes were developed in ECL (Bio-Rad) and imaged using the ChemiDoc imaging system (Bio-Rad). Images were processed using Image Lab software.

MDA-MB-231 cells = test: Lattice light sheet imaging of mitosis, MDA-MB-231; format: cell-based, human; settings: 15 µM
Description: (§1) MDA-MB-231, MiaPaca2, HMEC-1, SK-MEL-2 and UO-31 cells were seeded at 2–15 × 10^4 cells/mL in 8-well glass µ-slides (ibidi). […] SPY650-Tubulin, SPY555-DNA (both Spirochrome, Inc.), and Annexin V FITC (Sigma-Aldrich) were added at a final concentration of 1 in 1000. Cells were left to grow for 24 h before time-lapse live-cell data were acquired using a Lattice Light Sheet 7 (Zeiss). […] Aberration correction was set to a value of 170 to minimise aberrations as determined by imaging the Point Spread Function using 100 nm fluorescent microspheres. Data were collected with a frame time of 10 ms and a z step of 0.4 μm with 834 frames per 290 μm by 290 μm. Individual regions were imaged in parallel across six wells of the eight-well chamber slide. Data are presented as Maximum Intensity Projections (MIPs), and these MIPs were used for all downstream analysis. Tile regions were imaged for 24 h with 10 min intervals at 37 °C, 5% CO2. Analysis was performed using the MIPs of the different full fields of cells over the 24–48 h time period. Mitosis and mitosis arrest were classified through a combination of automated image analysis and manual validation. […] Small erroneous detected spots were further removed through a manually adjusted size filter. […] The mean intensity of all tracks was then measured to determine mitosis and mitosis arrest. […]

HDFs = test: Colony formation assay, HDF; format: cell-based, human; settings: 10 µM, 7–12 days
Description: (§2) Cells were seeded at low density (200–4000 cells per well) after initial optimisation in a six-well tissue culture-treated plate (Falcon). Twenty-four hours post seeding, media was replaced, and the inhibitor was added. Cells were left to grow into colonies between 7 and 12 days, depending on the cell line. For analysis, the media was removed, and the cells were fixed with 10% (w/v) formalin for 10 min. Colonies were stained with crystal violet (Sigma-Aldrich, 0.5% [w/v] in 20% [v/v] MeOH) for 10 min and washed thrice with distilled H2O. Plates were imaged using the ChemiDoc imaging system (Bio-Rad) and analysed using the ImageJ ColonyArea plugin as described previously (Guzmán et al, [2014]).

MiaPaca2 cells [2] = test: Lattice light sheet imaging of mitosis, MiaPaca2; format: cell-based, human; settings: 15 µM
Description: as §1

[3] = test system: T1, USP9X Δβ catalytic domain; test: Ub-PA suicide probe assay, USP9X Δβ; format: biochemical, human; settings: 50 µM compound
T1 construct: His/SUMO (pOPIN-S vector) (N, cleaved yes); made in house; host or cells: E. coli BL21
Text: An expression construct for the USP9X catalytic domain (aa 1551–1970, […]: Q93008-1), was codon optimised for bacterial expression, synthesised in gBlock format (Integrated DNA Technologies) and cloned into the pOPIN-S vector (Berrow et al, [2007]), which was digested with KpnI and HindIII using In-Fusion™ HD cloning (Takara Clontech). For SPR, constructs were ordered with a GGS linker followed by a C-terminal AviTag™ (aa sequence: […]) and were cloned as above. For the USP9X Δβ catalytic domain a deletion construct ΔE1924-K1943 and for USP9X/USP24 chimera, a construct with USP9X Y1757-A1766 replaced with the USP24 (NCBI Reference Sequence: NP_056121) aa motif […] was used. All constructs were confirmed by Sanger sequencing (AGRF).
For inhibitor activity assays, USP9X catalytic domain (di-ubiquitin cleavage assay: 750 nM, ubiquitin-probe assays: 2.5 µM) was pre-incubated with USP9X inhibitors for 30 min at ambient temperature and subsequently mixed with di-ubiquitin (final concentration 2 µM) in assay buffer (25 mM Tris [pH 8.0], 150 mM NaCl, 10 mM DTT) at pH 8.0 or was mixed with ubiquitin-propargylamide (Ub-PA)/ubiquitin-vinyl sulfonate (Ub-VS) probes at a final concentration of 10 µM in assay buffer. […]

MiaPaca2 cells [4] = test: Colony formation assay, MiaPaca2; format: cell-based, human; settings: 10 µM, 7–12 days
Description: as §2

[5] = test system: 57 human cancer cell lines; test: NCI-60 cancer cell panel; format: cell-based; settings: 72 h, 3 days, in five cell lines across three cancer types, read-out: cell growth inhibition
Description: (§3) Inhibitors were tested at 10 µM. Data shown is the mean of two technical replicates and is shown relative to the no-drug control, and relative to the time zero number of cells.

UO-31 cell line = test: NCI-60 cancer cell panel, UO-31; format: cell-based, human; settings: 10 µM, 3 days
Description: as §3

In the case of `Cc1[nH]c2ccc(C(=O)N3CCN(S(=O)(=O)c4ccc5c(c4)OCCO5)CC3)cc2c1C` [WEHI-092], the “MKRN2, CHMP2B and DTX3L protein levels (Western Blot)” value [1] is reported as “led to protein depletion”, the “apoptosis on metaphase arrest (Annexin V uptake), MDA-MB-231” value (MDA-MB-231 cells) is reported as “did not trigger apoptosis” and the “cell division phenotype, MDA-MB-231” value (MDA-MB-231 cells; imaged 24-48 h) is reported as “significant defects in cell division”. For the same compound, the “clonogenic potential, HDF” value (HDFs) was “limited or no effects”, the “apoptosis on metaphase arrest (Annexin V uptake), MiaPaca2” value (MiaPaca2 cells [2]) was “did not trigger apoptosis” and the “cell division phenotype, MiaPaca2” value (MiaPaca2 cells [2]; imaged 24-48 h) was “significant defects in cell division”. The “modification of USP9X Δβ with Ub-PA probe” value [3] was “unable to be modified by the probe”, the “clonogenic potential, MiaPaca2” value (MiaPaca2 cells [4]) was “strong decrease in proliferative capacity” and the inhibition at 10 µM [5] was over 50%. For the same compound, the “cell killing, UO-31” value (UO-31 cell line) was “cell death”.
